The target of one assay is LmTXNPx (Leishmania major, UniProt Q4QF76). Kind of assay: Surface plasmon resonance, immobilized LmTXNPx. The assay is classed as binding. Conditions: SPR, 1:1 steady-state affinity model. The protocol: SPR experiments were carried out using a SensiQ Pioneer system (SensiQ, ICxNomadics Inc.). The interaction of the immobilized protein with the analytes was detected by mass concentration-dependent changes of the refractive index on the sensor chip surface. The changes in the observed SPR signal are expressed as Resonance Units (RU). Typically, a response change of 1000 RU corresponds to a change in the surface concentration on the sensor chip of about 1 ng of protein per mm^2.
Chain of LmTXNPx (Q4QF76 entry or part of it): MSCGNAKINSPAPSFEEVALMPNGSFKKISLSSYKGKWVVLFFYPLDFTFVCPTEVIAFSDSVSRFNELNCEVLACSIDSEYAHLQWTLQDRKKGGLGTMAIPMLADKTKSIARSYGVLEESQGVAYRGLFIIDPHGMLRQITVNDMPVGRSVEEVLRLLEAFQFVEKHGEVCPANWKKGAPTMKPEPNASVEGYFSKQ
The sensor chips (COOH5 SensiQ) were chemically activated by injection of 250 μl of a 1:1 mixture of N-hydroxysuccinimide (50 mM) and N-ethyl-N-(3-dimethylaminopropyl)carbodiimide (200 mM) at a flow rate of 25 μl/min. Recombinant LmTXNPx was immobilized on the activated sensor chip via amine coupling. The reaction was carried out at a rate of […] in 20 mM sodium acetate at pH 4.5; the remaining ester groups were blocked by injecting 100 μL of 1 M ethanolamine hydrochloride. Recombinant LmTXNPx was captured to approximately 2000 RU. The analytes were dissolved at a concentration of 10 mM or 20 mM in dimethylsulfoxide (DMSO), and diluted 1:100 in HEPES-buffered saline (HBS: 10 mM HEPES, pH 7.4; 150 mM NaCl; 0.005% surfactant P20).
FastStep injections of samples (100 or 200 μM analytes in HBS + 1% DMSO), and reference buffer (HBS + 1% DMSO) were performed: either the inhibitor and reference buffer were automatically diluted in HBS and injected by 7 serial doubling steps (step contact time = 15 s, nominal flow rate = 200 μl/min). The following analytes were injected: 0–17 s: analyte concentration = 3.12 μM; 17–33 s: 6.25 μM; 33–48 s: 12.5 μM; 48–62 s: 25 μM; 63–78 s: 50 μM; 78–93 s: 100 μM; 94–100 s: 200 μM; for each injection, a maximal RU value was obtained. In control experiments, the sensor chip was treated as described above in the absence of immobilized protein.
Each sensorgram is the average of three different experiments. Sensorgrams were subjected to global analysis using QDat software 2.2.0.23, and for each analyte concentration a % Response was calculated, allowing a local Rmax fit (according to the molecular weight of each compound) and displaying as a response relative to the Rmax. % Response vs. analyte concentration was plotted and a KD value was calculated for each analyte by fitting a simple 1:1 steady-state affinity model to the data.
On the technique in general: SPR reads the build-up and loss of mass on a sensor chip optically.

The target of assay [1] is T1, horseradish peroxidase (HRP) (Armoracia rusticana, UniProt P00433).
T1 sequence (P00433 31-353): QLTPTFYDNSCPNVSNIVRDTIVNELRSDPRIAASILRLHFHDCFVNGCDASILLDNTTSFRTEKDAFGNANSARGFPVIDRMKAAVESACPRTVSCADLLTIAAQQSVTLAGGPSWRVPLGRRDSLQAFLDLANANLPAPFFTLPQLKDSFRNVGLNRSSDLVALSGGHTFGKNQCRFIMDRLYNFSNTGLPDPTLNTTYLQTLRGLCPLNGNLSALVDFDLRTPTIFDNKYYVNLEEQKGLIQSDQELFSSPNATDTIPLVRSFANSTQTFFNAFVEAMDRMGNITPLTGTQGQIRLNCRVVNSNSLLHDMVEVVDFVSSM
Kind of assay: HRP inhibition control (compounds tested for their ability to inhibit HRP). Type of assay: biochemical. Conditions: compound at 100 μM. As to the method:
The compounds ability to inhibit TXNPx has been evaluated by simply measuring the following ratio: ΔA/ΔA0 where ΔA0 is the difference in absorbance between HRP and compound I (ΔA0 = 0.04) and ΔA is the difference in absorbance between HRP and compound I in the presence of LmTXNPx and 100 μM inhibitors. All the compounds have been previously tested for their ability to inhibit HRP at a concentration of 100 μM.

The compound `COc1cc2cc(CN(Cc3ccc(F)cc3)Cc3nnnn3Cc3cccc(N(C)C)c3)c(=O)[nH]c2cc1OC` [Compound 4, 3-((((1-(3-(Dimethylamino)benzyl)-1H-tetrazol-5-yl)methyl)(4-fluorobenzyl)amino)methyl)-6,7-dimethoxyquinolin-2(1H)-one] came in with a Kd at LmTXNPx of 156 ± 5 µM.

Consider `COc1cc2cc(CN(Cc3ccccc3)Cc3nnnn3Cc3ccccc3)c(=O)[nH]c2cc1OC` [Compound 9, 3-((((1-Benzyl-1H-tetrazol-5-yl)methyl)benzylamino)methyl)-6,7-dimethoxyquinolin-2(1H)-one], for which binding at LmTXNPx was put at a Kd of 74 ± 3 µM. Also, the HRP inhib. entry in assay [1] is “Yes”.

For `COc1cc2cc(CN(Cc3ccc(Cl)cc3)Cc3nnnn3Cc3ccccc3)c(=O)[nH]c2cc1OC` [Compound 10, 3-((((1-Benzyl-1H-tetrazol-5-yl)methyl)(4-chlorobenzyl)amino)methyl)-6,7-dimethoxyquinolin-2(1H)-one], at LmTXNPx, the Kd is 63 ± 3 µM. For the same compound, the HRP inhib. result in assay [1] was “Yes”.

On to `CCOC(=O)Cc1csc(NC(=O)CSc2nc(C(C)C)nc3sc(C)c(C)c23)n1` [NF2013], for which the HRP inhibition entry in assay [1] (first series (HTD hits)) is reported as “Yes”.

A word on the Kd: it is the concentration at which binding is half-saturated.
